Source: patent publication US10596172B2 (Celgene CAR LLC, priority 2008, dated 2020)
pEC50, pIC50: −log10 of the molar value. Like-named read-outs stand apart in the source and are kept apart here.

What was measured:
BTK [1] = target: T1, BTK (Homo sapiens (Human), UniProt Q06187); experiment: Mass spectrometry for BTK (covalent modification of intact protein); type: binding; details: 1 hr, 10x fold excess of compound
Method: Intact BTK was incubated for 1 hr at a 10× fold excess of I-7 to protein. Aliquots (2 μl) of the samples were diluted with 10 μl of 0.1% TFA prior to micro C4 ZipTipping directly onto the MALDI target using Sinapinic acid as the desorption matrix (10 mg/ml in 0.1% TFA:Acetonitrile 20:80).

BTK [2] = target: T1, BTK; experiment: Washout experiment with Ramos cells; type: cell-based; details: 100 nM compound 1 hour, then washout
Method: Ramos cells were serum starved for one hour in RPMI media +1% glutamine at 37° C. After starvation, Ramos cells were treated with 100 nM compound diluted in serum free RPMI media for 1 hour. After compound treatment, the media was removed and cells were washed with compound-free media. Subsequently, Ramos cells were washed every 2 hours and resuspended in fresh compound-free media. Cells were collected at specified timepoints, treated with 1 ug anti-human IgM (Southern Biotech cat #2022-01) for 10 minutes on ice to induce BCR signaling and then washed in PBS. Ramos cells were then lysed in Cell Extraction Buffer (Invitrogen FNN0011) supplemented with Roche complete protease inhibitor tablets (Roche 11697498001) and phosphatase inhibitors (Roche 04 906 837 001) and 18 ug total protein lysate was loaded in each lane. Inhibition of BTK kinase activity was assayed by measuring its substrate (PLCγ2) phosphorylation by western blot with phospho-specific antibodies from Cell Signaling Technologies cat #3871. The results of this experiment with compounds I-2, I-4 and I-7 are depicted in FIGS. 1, 2 and 3.

[3] = tested on: B cell lymphoma cell lines; experiment: B cell lymphoma proliferation assay; type: cell-based
JAK3 = JAK3 (Homo sapiens (Human), UniProt P52333); experiment: Omnia assay for potency assessment against the active form of JAK3; type: biochemical; details: read-out: JAK3 Inhibition
Sequence of JAK3 (P52333 whole entry): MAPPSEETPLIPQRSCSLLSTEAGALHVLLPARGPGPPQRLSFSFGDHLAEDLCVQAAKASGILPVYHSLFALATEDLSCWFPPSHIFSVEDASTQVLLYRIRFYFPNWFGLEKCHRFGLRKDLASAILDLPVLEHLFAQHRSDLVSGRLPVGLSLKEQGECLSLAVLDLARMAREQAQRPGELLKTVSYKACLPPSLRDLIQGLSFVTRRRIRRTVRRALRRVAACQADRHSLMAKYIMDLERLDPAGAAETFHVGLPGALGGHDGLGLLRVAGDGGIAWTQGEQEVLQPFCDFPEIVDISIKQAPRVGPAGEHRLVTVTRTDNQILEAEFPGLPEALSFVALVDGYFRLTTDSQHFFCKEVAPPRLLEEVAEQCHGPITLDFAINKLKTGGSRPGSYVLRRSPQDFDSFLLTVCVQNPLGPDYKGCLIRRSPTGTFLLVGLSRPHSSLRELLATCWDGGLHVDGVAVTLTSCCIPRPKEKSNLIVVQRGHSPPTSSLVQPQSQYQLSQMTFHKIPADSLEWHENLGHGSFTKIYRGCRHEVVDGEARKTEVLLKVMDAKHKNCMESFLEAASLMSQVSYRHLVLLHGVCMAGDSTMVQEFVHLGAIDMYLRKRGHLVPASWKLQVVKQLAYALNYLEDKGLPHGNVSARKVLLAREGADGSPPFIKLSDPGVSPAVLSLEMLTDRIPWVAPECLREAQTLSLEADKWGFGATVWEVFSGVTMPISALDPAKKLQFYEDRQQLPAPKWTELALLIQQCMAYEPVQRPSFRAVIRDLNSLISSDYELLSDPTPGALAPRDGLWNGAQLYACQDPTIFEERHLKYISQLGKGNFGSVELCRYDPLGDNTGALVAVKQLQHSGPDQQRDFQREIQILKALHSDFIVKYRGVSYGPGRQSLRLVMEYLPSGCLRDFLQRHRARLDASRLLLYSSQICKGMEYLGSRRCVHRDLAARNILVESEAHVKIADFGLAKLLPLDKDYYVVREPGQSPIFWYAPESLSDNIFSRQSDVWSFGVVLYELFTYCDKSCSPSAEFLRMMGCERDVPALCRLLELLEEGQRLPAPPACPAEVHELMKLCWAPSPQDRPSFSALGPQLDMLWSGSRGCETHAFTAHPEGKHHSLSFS
Method: Briefly, 10× stocks of EGFR-WT (PV3872) from Invitrogen and EGFR-T790M/L858R (40350) from BPS Bioscience, San Diego, Calif., 1.13×ATP (AS001A) and appropriate Tyr-Sox conjugated peptide substrates (KCZ1001) were prepared in 1× kinase reaction buffer consisting of 20 mM Tris, pH 7.5, 5 mM MgCl2, 1 mM EGTA, 5 mM β-glycerophosphate, 5% glycerol (10× stock, KB002A) and 0.2 mM DTT (DS001A).
The Omnia Assay Protocol for potency assessment against JAK3 was performed in a substantially similar manner as that described in Example 251 above except that the modified JAK3-optimized reagent conditions were:
[JAK3]=5 nM, [ATP]=5 μM, [Y12-Sox]=5 μM (ATP KMapp˜5 μM).

Human naïve B cells = experiment: Human primary B cell proliferation assay; type: cell-based; details: 5 μg/ml α-IgM 72 hours, 3H-thymidine incorporation
Method: Human naïve B cells were purified from 100 mL whole blood using a MACS purification kit designed to isolate CD19+, IgD+ cells by negative selection. Purified naïve B cells were resuspended in RPMI complete and stimulated with 5 μg/ml α-IgM for 72 hours. ^3H-Thymidine was included in the culture media for the final 16 h, cells were harvested and ^3H incorporation measured. Inhibition of B cell proliferation correlates with inhibition of BTK substrate phosphorylation after α-IgM stimulation.

BTK [4] = target: BTK (Rattus norvegicus, UniProt Q5S255); experiment: BTK occupancy from in vivo samples by ELISA; details: po, rats dosed orally 30 mg/kg
Sequence of BTK (Rattus norvegicus, UniProt Q5S255) (Q5S255 1-660): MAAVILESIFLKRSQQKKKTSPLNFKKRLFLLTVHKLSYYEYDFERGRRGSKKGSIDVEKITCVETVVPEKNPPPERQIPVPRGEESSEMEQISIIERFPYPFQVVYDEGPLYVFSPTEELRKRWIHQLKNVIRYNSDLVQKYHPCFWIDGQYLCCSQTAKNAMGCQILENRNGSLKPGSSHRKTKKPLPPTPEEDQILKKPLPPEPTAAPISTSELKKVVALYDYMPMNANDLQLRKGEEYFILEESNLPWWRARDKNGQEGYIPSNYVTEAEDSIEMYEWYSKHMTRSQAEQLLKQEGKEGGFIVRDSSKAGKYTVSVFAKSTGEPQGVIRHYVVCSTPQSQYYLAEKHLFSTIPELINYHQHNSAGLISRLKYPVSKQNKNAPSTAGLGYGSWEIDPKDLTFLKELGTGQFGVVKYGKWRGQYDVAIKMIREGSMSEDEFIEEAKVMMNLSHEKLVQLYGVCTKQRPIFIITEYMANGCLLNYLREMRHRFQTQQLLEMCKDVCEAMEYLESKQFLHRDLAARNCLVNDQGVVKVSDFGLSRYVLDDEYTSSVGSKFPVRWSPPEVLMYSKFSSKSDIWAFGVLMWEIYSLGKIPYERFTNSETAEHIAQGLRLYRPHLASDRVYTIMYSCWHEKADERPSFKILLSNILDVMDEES
Method: All samples were prepared with equal concentrations of Biorad lysis buffer (Hercules, Calif., USA), 0.5% bovine serum albumin in PBS with 0.05% Tween-20 to give a final concentration of 1 μM I-215. Samples were incubated in a mixing plate for 1 hr at room temperature while shaking to allow probe compound I-215 to bind to free BTK. After incubation with I-215, samples were added to a washed, streptavidin-coated ELISA plate (Pierce, Rockford, Ill., USA) and incubated for 1 hr at room temperature while shaking. The plate was then washed with PBS containing 0.05% Tween-20 using an automatic plate washer. Anti-BTK antibody was prepared at 1:1000 dilution in 0.5% BSA in PBS (0.05% Tween-20) and added to the ELISA plate. The plate was incubated for 1 hr at room temperature while shaking. The plate was washed as described above and the secondary HRP antibody was prepared at 1:5000 dilution in 0.5% BSA in PBS (0.05% Tween-20). The plate was incubated and washed as described above. TMB was added to the plate, and OD650 was monitored until reaching 1 OD unit. The reaction was then stopped with addition of H2SO4. The plate was analyzed using Gen 5 software, and a 4 Parameter Logistic curve was employed to quantitate samples. Recombinant BTK (Invitrogen, Carlsbad, Calif., USA) was used for the standard curve.
Rats were dosed orally with 30 mg/kg of compound and spleens were harvested either 2 or 24 hours after compound treatment. Rat spleens were disrupted between two microscope slides coated with frosted glass to recover single cell suspensions. Red blood cells were lysed by incubating with RBC lysis buffer (Boston BioProducts) for 2 minutes at room temperature, the cells were then resuspended in RPMI complete media and pelleted by centrifugation. Rat B cells were isolated by positive selection with B220+ antibody-magnetic bead conjugates, purified by MACS column and lysed in Bio-Rad lysis buffer at a concentration of 10 million cells/100 μl. Lysates were analyzed employing the biotinylated probe compound I-215 in an ELISA protocol as described in detail in Example 278.

[5] = Homo sapiens, DOHH-2, DOHH2 B cell lymphoma cell line, read-out: EC50 (μM) DOHH2
[6] = Homo sapiens, WSUDLCL2, WSU-DLCL2 B cell lymphoma cell line, read-out: EC50 (μM) WSU-DLCL2
[7] = DHL4 B cell lymphoma cell line, read-out: EC50 (μM) DHL4

T1 sequence (Q06187 whole entry): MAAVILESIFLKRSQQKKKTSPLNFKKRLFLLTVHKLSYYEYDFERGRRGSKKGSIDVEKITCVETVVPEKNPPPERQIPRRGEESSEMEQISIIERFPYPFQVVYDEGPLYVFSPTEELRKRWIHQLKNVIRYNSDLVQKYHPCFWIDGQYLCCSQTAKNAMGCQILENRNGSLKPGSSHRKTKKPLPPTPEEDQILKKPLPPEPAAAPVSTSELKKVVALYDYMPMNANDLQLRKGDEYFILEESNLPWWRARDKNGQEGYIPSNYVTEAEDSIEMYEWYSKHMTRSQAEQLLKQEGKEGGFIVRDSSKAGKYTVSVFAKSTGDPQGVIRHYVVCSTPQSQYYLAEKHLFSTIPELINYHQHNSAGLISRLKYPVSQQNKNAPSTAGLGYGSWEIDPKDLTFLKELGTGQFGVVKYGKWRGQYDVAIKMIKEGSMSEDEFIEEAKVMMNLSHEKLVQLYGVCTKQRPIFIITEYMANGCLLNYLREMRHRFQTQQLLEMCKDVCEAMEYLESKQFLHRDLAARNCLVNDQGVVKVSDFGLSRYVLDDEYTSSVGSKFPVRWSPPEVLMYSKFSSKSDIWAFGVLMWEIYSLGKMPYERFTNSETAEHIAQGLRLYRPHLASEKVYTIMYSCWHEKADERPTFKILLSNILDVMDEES

| covalent modification of BTK by mass spectrometry (BTK [1]) | BTK Inhibition Type (BTK [2]) | EC50 [3, 5] [µM] | EC50 [3, 6] [µM] | pIC50 (JAK3) | EC50 [3, 7] [µM] | receptor occupancy at 30 mg/kg (BTK [4]; spleen B cells harvested 2 hours after treatment, read-out: % BTK Occupancy 2 h) [%] | receptor occupancy at 30 mg/kg (BTK [4]; spleen B cells harvested 24 hours after treatment, read-out: % BTK Occupancy 24 h) [%] | Molecule | pEC50 (Human naïve B cells) |
| --- | --- | --- | --- | --- | --- | --- | --- | --- | --- |
| – | irreversible | 1 to 10 | 1 to 10 | > 8.00 | – | – | – | C=CC(=O)Nc1cccc(Nc2nc(Nc3ccccc3)ncc2F)c1 [Compound I-28, N-(3-(5-fluoro-2-(phenylamino)pyrimidin-4-ylamino)phenyl)acrylamide] | – |
| – | irreversible | 1 to 10 | 1 to 10 | > 8.00 | – | – | – | C#CCOc1cccc(Nc2ncc(C)c(Nc3cccc(NC(=O)C=C)c3)n2)c1 [Compound I-35, N-(3-(5-methyl-2-(3-(prop-2-ynyloxy)phenylamino)pyrimidin-4-ylamino)phenyl) acrylamide] | – |
| – | reversible | 1 to 10 | 1 to 10 | 7.00 to 8.00 | – | – | – | Cc1cnc(Nc2ccccc2)nc1Nc1cccc(NC(=O)/C=C/CN(C)C)c1 [Compound I-38, (E)-4-(dimethylamino)-N-(3-(5-methyl-2-(phenylamino)pyrimidin-4-ylamino)phenyl)but-2-enamide] | – |
| completely modify | – | – | – | – | – | – | – | C=C(C#N)C(O)c1cccc(Nc2nc(Nc3ccc(OCCOC)cc3)ncc2F)c1 (stereo not drawn) [Compound I-71, 2-((3-(5-fluoro-2-(4-(2-methoxyethoxy)phenylamino)pyrimidin-4-ylamino)phenyl)(hydroxy)methyl)acrylonitrile] | – |
| completely modify | – | 1 to 10 | – | – | – | – | – | C=CC(=O)N1CCOc2ccc(Nc3ncc(F)c(Nc4cccc(Cl)c4)n3)cc21 [Compound I-149, 1-(6-(4-(3-chlorophenylamino)-5-fluoropyrimidin-2-ylamino)-2H-benzo[b][1,4]oxazin-4(3H)-yl)prop-2-en-1-one] | – |
| completely modify | – | 1 to 10 | – | – | 1 to 10 | – | – | C=C(C#N)C(O)c1ccc(Nc2nc(Nc3ccccc3)ncc2F)cc1 (stereo not drawn) [Compound I-161, 2-((4-(5-fluoro-2-(phenylamino)pyrimidin-4-ylamino)phenyl)(hydroxy)methyl)acrylonitrile] | – |
| – | – | > 10 | – | – | – | 18 | 13 | C=CC(=O)N1CCC[C@@H](Oc2nc(Nc3cccc(OC)c3)ncc2F)C1 [Compound I-190, (R)-1-(3-(5-fluoro-2-(3-methoxyphenylamino)pyrimidin-4-yloxy)piperidin-1-yl)prop-2-en-1-one] | 7.00 to 8.00 |
| completely modify | – | 1 to 10 | > 10 | – | > 10 | – | – | C=CC(=O)N1CCC[C@@H](Nc2nc(Nc3cccc(OC)c3)ncc2F)C1 [Compound I-195, (R)-1-(3-(5-fluoro-2-(3-methoxyphenylamino)pyrimidin-4-ylamino)piperidin-1-yl)prop-2-en-1-one] | – |
| completely modify | – | 0.1 to 1 | 1 to 10 | – | – | – | – | CC(C)=CC(=O)c1cccc(Nc2nc(Nc3cccc(OCCN(C)C)c3)ncc2F)c1 [Compound I-207] | – |
| completely modify | – | – | – | – | – | – | – | C=CC(=O)N(C)Cc1ccc(Nc2nc(Nc3ccccc3)ncc2C)cc1 [Compound I-219, N-methyl-N-(4-(5-methyl-2-(phenylamino)pyrimidin-4-ylamino)benzyl)acrylamide] | – |
| – | irreversible | > 10 | > 10 | – | – | – | – | C=CC(=O)Nc1cccc(Oc2nc(Nc3ccccc3)ncc2F)c1 [Compound I-228, N-(3-(5-fluoro-2-(phenylamino)pyrimidin-4-yloxy)phenyl)acrylamide] | – |
| – | irreversible | 1 to 10 | 1 to 10 | – | – | – | – | C=CC(=O)Nc1cccc(Nc2nc(Nc3ccccc3)ncc2C(N)=O)c1 [Compound I-230, 4-(3-acrylamidophenylamino)-2-(phenylamino)pyrimidine-5-carboxamide] | – |
| – | irreversible | 1 to 10 | 1 to 10 | > 8.00 | – | – | – | C=CC(=O)Nc1cccc(Nc2nc(Nc3cccc(OC)c3)ncc2C(F)(F)F)c1 [Compound I-242, N-(3-(5-trifluoromethyl-2-(3-methoxyphenylamino)pyrimidin-4-ylamino)phenyl)acrylamide] | – |
| – | irreversible | 1 to 10 | 1 to 10 | > 8.00 | – | – | – | C=CC(=O)Nc1cccc(Nc2nc(Nc3ccc(OC)nc3)ncc2F)c1 [Compound I-243, N-(3-(5-fluoro-2-(6-methoxypyridin-3-ylamino)pyrimidin-4-ylamino)phenyl)acrylamide] | – |
| completely modify | – | 0.1 to 1 | 1 to 10 | > 8.00 | 1 to 10 | – | – | C=CC(=O)Nc1cccc(Nc2nc(Nc3cccc(OC(F)(F)F)c3)ncc2F)c1 [Compound I-244, N-(3-(5-fluoro-2-(3-(trifluoromethoxy)phenylamino)pyrimidin-4-ylamino)phenyl)acrylamide] | – |
| – | irreversible | 0.1 to 1 | 1 to 10 | > 8.00 | – | – | – | C=CC(=O)Nc1cccc(Nc2nc(Nc3ccc(F)cc3)ncc2F)c1 [Compound I-247, N-(3-(5-fluoro-2-(4-fluorophenylamino)pyrimidin-4-ylamino)phenyl)acrylamide] | – |
| – | irreversible | 1 to 10 | 1 to 10 | > 8.00 | – | – | – | C=CC(=O)Nc1cccc(Oc2nc(Nc3ccccc3)ncc2C)c1 [Compound I-248, N-(3-(5-methyl-2-(phenylamino)pyrimidin-4-yloxy)phenyl)acrylamide] | – |
| – | – | – | – | 5.00 to 6.00 | – | – | – | CCC(=O)Nc1cccc(Nc2nc(Nc3ccccc3)ncc2C)c1 [I^R-7, N-(3-(5-methyl-2-(phenylamino)pyrimidin-4-ylamino)phenyl) propionamide] | < 6.00 |

| Molecule | covalent modification of BTK by mass spectrometry (BTK [1]) | BTK Inhibition Type (BTK [2]) | EC50 [3, 5] [µM] | EC50 [3, 6] [µM] | pIC50 (JAK3) | EC50 [3, 7] [µM] | receptor occupancy at 30 mg/kg (BTK [4]; spleen B cells harvested 2 hours after treatment, read-out: % BTK Occupancy 2 h) [%] | receptor occupancy at 30 mg/kg (BTK [4]; spleen B cells harvested 24 hours after treatment, read-out: % BTK Occupancy 24 h) [%] | pEC50 (Human naïve B cells) |
| --- | --- | --- | --- | --- | --- | --- | --- | --- | --- |
| 2-((4-(5-fluoro-2-(3-trifluoromethoxyphenylamino)pyrimidin-4-ylamino)phenyl)(hydroxy)methyl)acrylonitrile [Compound I-163] | completely modify | – | – | – | – | – | – | – | – |
